Source: PubChem BioAssay (NCI)
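Test compounds were applied to cells in 96-well plates for 48 hours at 5 doses. GI50: concentration for 50% inhibition of growth. TGI: concentration producing complete growth inhibition.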

Key:
Assay in all cases: NCI anticancer screen, dose series, 48 h
A549 NSCLC = tested on: A549 NSCLC
ACHN renal = tested on: ACHN renal
DU-145 prostate = tested on: DU-145 prostate
HS 578T breast = tested on: HS 578T breast
MCF7 breast = tested on: MCF7 breast
NCI-H226 lung = tested on: NCI-H226 lung
SR leukemia = tested on: SR leukemia
U251 CNS = tested on: U251 CNS
HCT-116 colon = tested on: HCT-116 colon
HT29 colon = tested on: HT29 colon

Structure (SMILES) | TGI (A549 NSCLC) | TGI (ACHN renal) | TGI (DU-145 prostate) | TGI (HS 578T breast) | TGI (MCF7 breast) | TGI (NCI-H226 lung) | TGI (SR leukemia) | TGI (U251 CNS) | TGI (HCT-116 colon) | TGI (HT29 colon) | GI50 (A549 NSCLC) | GI50 (ACHN renal) | GI50 (DU-145 prostate) | GI50 (HS 578T breast) | GI50 (HT29 colon) | GI50 (NCI-H226 lung) | GI50 (U251 CNS)
C=C(C)[C@H]1C2=CC(C)=C(O2)[C@@H](O)[C@H](C(=C)C)CCC2=C[C@H]1OC2=O | > 100 µM | > 100 µM | > 100 µM | > 100 µM | > 100 µM | > 100 µM | > 100 µM | > 100 µM | – | – | – | – | – | – | – | – | –
CCCCCCCCCCCCCCCCCCNC(=S)/N=C/c1c(O)c2ccccc2[nH]c1=O | 47.6 µM | 30.9 µM | 29.7 µM | – | 48.3 µM | 63.3 µM | – | 40.5 µM | 30.4 µM | 30.9 µM | – | – | – | – | – | – | –
COC(=O)C1=C(O)CCCC(C2CCCCC(=O)C2C(=O)OC)=C1 (centres undefined) | > 100 µM | > 100 µM | > 100 µM | – | 70.4 µM | > 100 µM | > 100 µM | > 100 µM | > 100 µM | > 100 µM | – | – | – | – | – | – | –
CN(CCCNC(=O)c1nn(C)c2c1Cc1ccccc1-2)CCCNC(=O)c1nn(C)c2c1Cc1ccccc1-2 | 33.3 µM | 31 µM | 32.4 µM | 42.1 µM | 31.2 µM | – | > 100 µM | 26.2 µM | 30.2 µM | 31.6 µM | – | – | – | – | – | – | –
O=P(Nc1ccccc1)(Oc1ccccc1)N(CCCl)CCCl (centres undefined) | > 100 µM | > 100 µM | – | – | – | > 100 µM | > 100 µM | > 100 µM | > 100 µM | > 100 µM | – | – | – | – | – | – | –
O=C(Nc1ccccc1Cl)c1ccc([N+](=O)[O-])cc1 | > 100 µM | – | – | – | – | > 100 µM | – | > 100 µM | – | > 100 µM | – | – | – | – | – | – | –
COc1cc(C2C3=C(CCCC3=O)N(c3ccc(C)cc3)C3=C2C(=O)CCC3)c([N+](=O)[O-])cc1OC | > 100 µM | > 100 µM | – | > 100 µM | > 100 µM | > 100 µM | > 100 µM | > 100 µM | – | > 100 µM | – | – | – | – | – | – | –
COC1=C(C)C(=O)C2=C(C1=O)C1C3CC4=C(C(=O)C(OC)=C(C)C4=O)C(CNC(=O)C(C)O)N3C(C#N)C(C2)N1C (centres undefined) | – | 0.359 µM | 0.0566 µM | < 0.01 µM | 2.25 µM | 0.109 µM | > 100 µM | – | 2.18 µM | < 0.01 µM | – | – | – | – | – | – | –
Cc1cc2c(c(S(=O)(=O)c3ccccc3[N+](=O)[O-])c1)NCCC2 | > 100 µM | > 100 µM | > 100 µM | > 100 µM | > 100 µM | > 100 µM | > 100 µM | > 100 µM | – | > 100 µM | – | – | – | – | – | – | –
CCn1c2c(c3ccccc31)[C@@H](c1ccc(Cl)cc1)CC1C(=O)N(c3ccccc3)C(=O)C21 (some centres undefined) | > 100 µM | > 100 µM | – | – | – | > 100 µM | 98.8 µM | > 100 µM | > 100 µM | > 100 µM | – | – | – | – | – | – | –
O=C(c1cccnc1)N1N=C(c2ccccc2)CC1(O)c1cc(F)c(Cl)cc1Cl (centres undefined) | > 100 µM | 58.5 µM | > 100 µM | 79.5 µM | – | 36.3 µM | 67 µM | 32.4 µM | 30.6 µM | > 100 µM | – | – | – | – | – | – | –
CN1CCc2c(sc3ncn(Nc4ccc(Cl)cc4)c(=N)c23)C1 | > 100 µM | > 100 µM | > 100 µM | > 100 µM | > 100 µM | > 100 µM | – | > 100 µM | > 100 µM | > 100 µM | – | – | – | – | – | – | –
C=CC(C)C1(CCCOCc2ccccc2)C(=S)N2CCC3(CC24CCCC14)OCCO3 (centres undefined) | > 100 µM | > 100 µM | – | – | – | > 100 µM | – | > 100 µM | – | > 100 µM | – | – | – | – | – | – | –
OC12c3ccccc3C1CCCCCCCCCC21OCCO1 (centres undefined) | > 100 µM | > 100 µM | – | – | – | > 100 µM | – | > 100 µM | > 100 µM | > 100 µM | – | – | – | – | – | – | –
COC(=O)CNC(=O)CCC(C)[C@H]1CCC2C3C(C[C@H](OC(C)=O)[C@@]21C)[C@@]1(C)CCC2(C[C@H]1C[C@H]3OC(C)=O)OOC1(CC[C@]3(C)C4C[C@H](OC(C)=O)[C@@]5(C)C(CC[C@@H]5C(C)CCC(=O)NCC(=O)OC)C4[C@H](OC(C)=O)C[C@@H]3C1)OO2 (some centres undefined) | 2.37 µM | 1.57 µM | – | 2.37 µM | > 50 µM | 3.46 µM | – | 14 µM | 9.1 µM | 2.37 µM | – | – | – | – | – | – | –
Cc1cc2n[n+]3[n-]cc(-c4ccccc4)n3c2cc1[N+](=O)[O-] | > 100 µM | > 100 µM | > 100 µM | > 100 µM | > 100 µM | – | > 100 µM | > 100 µM | > 100 µM | – | – | – | – | – | – | – | –
C=CCN1/C(=C2\SC(=S)N(c3ccc(C)cc3)C2=O)Sc2c1ncn(C)c2=O | > 100 µM | > 100 µM | – | – | – | > 100 µM | > 100 µM | > 100 µM | > 100 µM | > 100 µM | – | – | – | – | – | – | –
CCCCCCCCCCCCCC[n+]1ccc(C(N)=O)cc1 | 6.65 µM | 15.9 µM | 10.7 µM | 7.05 µM | – | 4.01 µM | – | 1.87 µM | – | 4.13 µM | 2.4 µM | 3.47 µM | 2.66 µM | 2.01 µM | 1.11 µM | 1.52 µM | 0.538 µM
CCOC(=O)C(Cc1ccccc1)NC(=O)c1[nH]cnc1/N=N/N(C)C (centres undefined) | > 100 µM | > 100 µM | – | – | – | > 100 µM | > 100 µM | > 100 µM | > 100 µM | > 100 µM | – | – | – | – | – | – | –
COC(=O)C1=C(C(=O)OC)C(N(C)C)C(C(=O)OC)=C(C(=O)OC)S1 | > 100 µM | > 100 µM | > 100 µM | > 100 µM | > 100 µM | > 100 µM | > 100 µM | > 100 µM | > 100 µM | – | – | – | – | – | – | – | –
NC(=O)CC(N)C(=O)NC(Cc1ccccc1)C(=O)NC(Cc1ccccc1)NC(=O)C(Cc1c[nH]c2ccccc12)C(=O)O (centres undefined) | > 100 µM | > 100 µM | > 100 µM | > 100 µM | > 100 µM | > 100 µM | – | > 100 µM | > 100 µM | > 100 µM | – | – | – | – | – | – | –
O[C@@H]1CCC[C@@H]2NC[C@@H](c3ccc4c(c3)OCO4)[C@H]12 | > 100 µM | > 100 µM | > 100 µM | > 100 µM | > 100 µM | > 100 µM | > 100 µM | > 100 µM | – | > 100 µM | – | – | – | – | – | – | –
COC(=O)[C@]1(c2ccc(N(C)C)cc2OC)C[C@@H]2CCCN(CCc3c1[nH]c1ccccc31)C2 | > 65.5 µM | – | – | – | 30.7 µM | 37.6 µM | – | 36 µM | 55.5 µM | 32.8 µM | – | – | – | – | – | – | –
CNC(=O)SCC(NC(=O)CCC(N)C(=O)O)C(=O)NCC(=O)O (centres undefined) | > 100 µM | – | – | – | > 100 µM | > 100 µM | – | > 100 µM | > 100 µM | > 100 µM | – | – | – | – | – | – | –
